According to paper PMC12589487, “Molecular basis of vitamin K-dependent protein γ-glutamyl carboxylation” (Cell Research, 2025):

Tests used:
GGCX•FIX complex [1] = molecular target: T1, GGCX•FIX complex (Homo sapiens, UniProt P38435, K217A/K218A); experiment: cryo-EM structure, […] Å; type: binding; settings: catalytically inactive GGCX double mutant
T1 construct: GGCX co-expressed with full-length FIX in HEK293F cells, cryo-EM in detergent micelle; FIX propeptide and GLA domain (residues 29-92) resolved; WT and K217A/K218A GGCX; with Coagulation factor IX

GGCX^AA•FX complex = molecular target: T2, GGCX^AA•FX complex (Homo sapiens, UniProt P38435, K217A/K218A); experiment: cryo-EM structure, […] Å; type: binding; settings: catalytically inactive GGCX double mutant
T2 construct: GGCX K217A/K218A double mutant in complex with FX, cryo-EM; with Coagulation factor X

GGCX•FIX complex [2] = molecular target: T3, GGCX•FIX complex (Homo sapiens, UniProt P38435); experiment: cryo-EM structure, […] Å; type: binding
T3 construct: GGCX co-expressed with full-length FIX in HEK293F cells, cryo-EM in detergent micelle; FIX propeptide and GLA domain (residues 29-92) resolved; WT and K217A/K218A GGCX; with Coagulation factor IX

GGCX [3] = molecular target: T4, GGCX (Homo sapiens, UniProt P38435); experiment: binding assay, method not told in main text (Fig. S9); settings: homologue not told in main text
T4 construct: Flag-tagged GGCX used in pull-downs
T4 sequence (P38435 2-758): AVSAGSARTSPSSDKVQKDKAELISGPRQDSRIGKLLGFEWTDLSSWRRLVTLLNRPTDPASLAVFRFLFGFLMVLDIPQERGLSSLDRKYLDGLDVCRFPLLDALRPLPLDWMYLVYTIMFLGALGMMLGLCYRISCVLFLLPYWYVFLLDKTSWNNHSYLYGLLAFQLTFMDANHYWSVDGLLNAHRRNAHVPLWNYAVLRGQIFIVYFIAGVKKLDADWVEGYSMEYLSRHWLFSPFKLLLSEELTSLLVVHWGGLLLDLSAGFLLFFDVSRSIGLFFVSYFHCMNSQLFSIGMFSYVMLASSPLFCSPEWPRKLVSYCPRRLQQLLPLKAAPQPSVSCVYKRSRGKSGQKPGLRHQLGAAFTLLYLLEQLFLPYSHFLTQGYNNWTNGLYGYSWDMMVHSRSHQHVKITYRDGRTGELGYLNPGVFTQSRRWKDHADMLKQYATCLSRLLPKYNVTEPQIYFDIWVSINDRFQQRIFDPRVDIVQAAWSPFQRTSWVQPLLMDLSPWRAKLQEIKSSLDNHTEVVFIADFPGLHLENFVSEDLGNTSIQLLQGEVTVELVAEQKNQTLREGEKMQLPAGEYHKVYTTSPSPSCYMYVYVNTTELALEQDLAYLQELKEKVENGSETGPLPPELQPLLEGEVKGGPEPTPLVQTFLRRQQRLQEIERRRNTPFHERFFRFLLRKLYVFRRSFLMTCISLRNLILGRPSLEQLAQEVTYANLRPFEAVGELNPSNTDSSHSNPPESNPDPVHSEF

GGCX [4] = molecular target: T4, GGCX; experiment: binding assay, method not told in main text (Fig. S8); settings: form and homologue of vitamin K not told in main text

T3 sequence (P38435 whole entry, the tested form may be a part): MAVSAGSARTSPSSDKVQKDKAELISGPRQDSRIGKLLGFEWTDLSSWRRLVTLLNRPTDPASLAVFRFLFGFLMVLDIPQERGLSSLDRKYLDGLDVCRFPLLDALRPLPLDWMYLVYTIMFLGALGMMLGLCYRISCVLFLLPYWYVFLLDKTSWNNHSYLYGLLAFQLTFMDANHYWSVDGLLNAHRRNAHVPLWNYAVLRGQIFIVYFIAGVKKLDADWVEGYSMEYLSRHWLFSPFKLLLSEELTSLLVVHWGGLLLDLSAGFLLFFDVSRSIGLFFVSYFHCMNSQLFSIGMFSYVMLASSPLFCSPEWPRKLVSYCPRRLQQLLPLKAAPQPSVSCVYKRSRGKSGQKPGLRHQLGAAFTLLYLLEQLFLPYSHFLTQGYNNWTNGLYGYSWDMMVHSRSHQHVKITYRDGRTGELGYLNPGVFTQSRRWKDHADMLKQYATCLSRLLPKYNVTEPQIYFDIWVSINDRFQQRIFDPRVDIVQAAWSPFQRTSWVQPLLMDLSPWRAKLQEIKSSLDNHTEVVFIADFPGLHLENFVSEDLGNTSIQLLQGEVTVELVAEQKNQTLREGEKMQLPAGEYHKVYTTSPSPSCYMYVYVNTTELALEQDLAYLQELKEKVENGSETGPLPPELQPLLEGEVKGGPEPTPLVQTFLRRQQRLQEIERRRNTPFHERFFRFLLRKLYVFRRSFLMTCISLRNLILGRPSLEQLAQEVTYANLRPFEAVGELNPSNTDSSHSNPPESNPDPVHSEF
T3 sequence (P00740 29-461 partner): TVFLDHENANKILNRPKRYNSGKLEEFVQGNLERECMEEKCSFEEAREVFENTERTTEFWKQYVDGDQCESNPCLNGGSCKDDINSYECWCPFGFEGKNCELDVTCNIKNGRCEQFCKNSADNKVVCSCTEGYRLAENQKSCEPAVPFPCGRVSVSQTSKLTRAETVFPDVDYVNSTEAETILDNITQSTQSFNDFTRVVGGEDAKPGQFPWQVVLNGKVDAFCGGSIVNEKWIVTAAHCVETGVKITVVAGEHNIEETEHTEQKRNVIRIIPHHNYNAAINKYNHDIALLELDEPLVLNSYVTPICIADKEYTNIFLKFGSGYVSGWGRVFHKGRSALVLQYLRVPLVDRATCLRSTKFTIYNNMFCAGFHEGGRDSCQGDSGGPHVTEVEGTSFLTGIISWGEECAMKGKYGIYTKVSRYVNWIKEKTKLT
T2 sequence (P38435 whole entry K217A/K218A): as the sequence (P38435 whole entry, the tested form may be a part) above, with K217A, K218A counted along it
T2 sequence (P00742 32-488 partner limits assumed): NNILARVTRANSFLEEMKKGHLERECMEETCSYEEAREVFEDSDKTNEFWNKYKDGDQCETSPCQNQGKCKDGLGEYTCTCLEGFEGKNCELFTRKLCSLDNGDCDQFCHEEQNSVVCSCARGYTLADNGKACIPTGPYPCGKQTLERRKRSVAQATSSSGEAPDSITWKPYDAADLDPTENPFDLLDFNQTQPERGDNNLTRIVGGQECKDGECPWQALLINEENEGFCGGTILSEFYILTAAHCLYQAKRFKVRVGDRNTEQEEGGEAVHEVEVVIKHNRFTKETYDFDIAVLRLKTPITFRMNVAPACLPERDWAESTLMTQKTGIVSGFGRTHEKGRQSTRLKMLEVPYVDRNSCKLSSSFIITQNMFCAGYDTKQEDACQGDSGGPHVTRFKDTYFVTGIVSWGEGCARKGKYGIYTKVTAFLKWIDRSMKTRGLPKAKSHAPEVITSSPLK
T1 sequence (P38435 whole entry K217A/K218A, the tested form may be a part): as the sequence (P38435 whole entry, the tested form may be a part) above, with K217A, K218A counted along it
T1 sequence (P00740 29-461 partner): as the sequence (P00740 29-461 partner) above

CC(C)=CCC/C(C)=C/CC/C(C)=C/CC/C(C)=C/Cc1c(C)c(O)c2ccccc2c1O [MKH2-4]
cryo-EM structure, 2.59 Å (GGCX•FIX complex [1]): unambiguous assignment of the bound molecule as MK-4 hydroquinone (MKH2-4)
cryo-EM structure, 2.58 Å (GGCX^AA•FX complex): unambiguous assignment of the bound molecule as MK-4 hydroquinone (MKH2-4)
cryo-EM structure, 2.78 Å (GGCX•FIX complex [2]; co-purified endogenous vitamin K, MK-4 by LC-MS/MS, ligand modelled by superposition with the K217A/K218A complex): Superimposing GGCX^WT•FIX onto GGCX^AA•FIX facilitated modeling of MKH2-4 into the WT binding pocket

CC(C)CCC[C@@H](C)[C@H]1CC[C@H]2[C@@H]3CC=C4C[C@@H](O)CC[C@]4(C)[C@H]3CC[C@]12C [cholesterol]
cryo-EM structure, 2.78 Å (GGCX•FIX complex [2]; co-purified lipid, which deposited model holds it is not told explicitly): A well-resolved co-purified cholesterol was also observed

VKO
Kd (GGCX [3]): ~8.19 µM

vitamin K
Kd (GGCX [4]): ~0.85 µM
